Experimental data: patent publication US8901118B2, “Compounds and methods for kinase modulation, and indications therefor” (Plexxikon Inc., priority 2010, dated 2014)

Assays:
BCR-KIT BaF3 cells = biological target: T1, BCR-KIT BaF3 cells (Homo sapiens, UniProt P10721); test: BaF3 BCR-KIT cell proliferation assay (ATPlite); type: cell-based; details: read-out: Inhibition of Cell Proliferation IC50, BCR/BaF3 Kit
T1 construct: fused on or other part: P11274 (Breakpoint cluster region protein)
Description: Compounds are assessed in a variety of cell based assays. For example BaF3 cells engineered with any of BCR-FMS, BCR-KIT, BCR-FLT3, BCR-NTRK1, BCR-NTRK2, and BCR-NTRK3, are used in cell proliferation assays to assess inhibitory activity of Fms, Kit, Flt-3, TrkA, TrkB, and TrkC, respectively. An MV-4-11 (leukemia) cell proliferation assay is used to assess inhibitory activity in Flt-3, and SKNSH (human neuroblastoma) cell proliferation assay is used to assess efficacy of Fms/Trk inhibitors. Additional cells may be assayed similarly to assess the efficacy of Fms/Trk inhibitors, such as MiaPaCa (human pancreatic cancer) and Capan-1 (human pancreatic carcinoma) cells. Reagent and assay conditions are as follows: • BaF3 cells: • Maintained in RPMI containing 10% FBS, 1% PenStrep, 1% NEAA, and 1% L-Glutamine, supplemented with 1 mg/mL G418 and 5% WEHI-CM (or recombinant murine IL-3). • Confluent cells are split 1:50 to 1:100 every 3-4 days. • MV-4-11 cells: • Maintained in Iscove's Modified Dulbecco's Medium containing 10% FBS. • Confluent cells are split 1:4 every 3-4 days. • SKNSH cells: RPMI containing 10% FBS. On day 1, cells are counted, then centrifuged in a conical tube for 5 minutes at 1000 rpm. The supernatant is removed and cells are re-suspended as follows: • BaF3: resuspend in growth media +1 mg/mL G418 (without WEHFIL-3) to 2×10^5 cells/mL. • MV-4-11: resuspend in growth media to 5×10^5 cells/mL. • SKNSH: resuspend in growth media to 2×10^4 cells/mL. The cells are plated (50 μL, 150 μL for SKNSH cells) in each well of a 96-well dish (Corning 3610) and incubated at 37° C. in 5% CO2 overnight, cells plated to a final concentration of cells as follows: • BaF3: 10,000 cells per well. • MV-4-11: 25,000 cells per well. • SKNSH: 3,000 cells per well. On day 2, compound at a maximum concentration of 5 mM is serially diluted 1:3 for a total of 8 point titration with DMSO as a control. A 1 μL aliquot of each dilution point is added to 249 μL growth media and 50 μL is added to a well containing cells, providing 10 μM compound for the maximum concentration point. The cells are incubated for 3 days at 37° C. in 5% CO2. For SKNSH cells, a 0.75 μL aliquot of appropriate dilution in DMSO is added to 150 μL of cells. On day 5, ATPlite 1 step Luminescence Assay System (Perkin Elmer #6016739) is brought to room temperature along with the cell cultures. ATPlite is added to each well as follows: • BaF3: 25 μL per well. • MV-4-11: 40 μL per well. • SKNSH: 20 μL per well. The cells are incubated at room temperature for 10 minutes, then luminescence is read on Safire reader. The measured luminescence correlates directly with cell number, such that the reading as a function of compound concentration is used to determine the IC50 value.
It is understood that the results of these assays may vary as assay conditions are varied. Inhibition levels determined under the conditions described herein represent a relative activity for the compounds tested under the specific conditions employed. The cell based assays are likely to show variability due to the complexity of the system and the sensitivity thereof to any changes in the assay conditions. […] Results for compounds that are tested and show substantially no inhibition below the highest tested concentration are represented as “-” in the tables below. In some instances, the compounds were not tested in all of the assays, or assay results were not valid, as indicated by NA in the tables below.

[1] = Relative solubility by turbidity in aqueous buffers (pH 1.5, 4.5, 6.8, 7.4); type: physicochemical; details: for turbidity threshold (L, M, H) 1.4: pH 1.5 (SGF); for turbidity threshold (L, M, H) 4.5: pH 4.5 (SIF); for turbidity threshold (L, M, H) 6.8: pH 6.8 (SIF); for turbidity threshold (L, M, H) 7.4: pH 7.4 (HEPES)
Description: As an indication of relative solubility, the turbidity of compounds in aqueous solutions is assessed. To assess possible compound properties in different physiological compartments, such as stomach, intestine, and blood, a series of aqueous buffers with varying pH is used. Thus each compound is diluted into four different physiologically relevant buffers and solution turbidity is measured by spectrophotometry.
Compounds are dissolved at a concentration of 25 mM in dimethyl sulfoxide, then serially diluted 1:1 into a 96 well plate, diluting 10 times in pure dimethyl sulfoxide, with the final well of each row a dimethyl sulfoxide blank. In an assay plate, 99 μL of appropriate buffer is added to each well, and 1 μL of each sample dilution is added to the buffer, achieving a range of final total concentrations in aqueous solutions having different pH. The buffers used are Simulated Gastric Fluid (SGF-pH 1.5) 0.5M NaCl, pH 1.5; Simulated Intestinal fluid (SIF-pH 4.5 and pH 6.8) 0.05M NaH2PO4, pH 4.5 and 6.8; and Hepes Buffer (HEPES-pH 7.4) 10 mM HEPES, 150 mM NaCl, pH 7.4. Control compounds pyrene, estriol and propranolol HCl are also assessed. Plates are spun and then mixed for 1 minute, and the absorbance is read using a Tecan Safire II to read wavelengths in the visible range (490, 535, and 650 nm) at four locations per well, reflecting the degree of turbidity present. The average optical density for each wavelength in each well is graphed vs. compound concentration, and the concentration at which the curve crosses a threshold O.D. of 0.01 for each wavelength is reported as the endpoint turbidity assay result. The average of the three wavelengths is used to compare turbidity of compounds.

T1 sequence (P10721 589-937): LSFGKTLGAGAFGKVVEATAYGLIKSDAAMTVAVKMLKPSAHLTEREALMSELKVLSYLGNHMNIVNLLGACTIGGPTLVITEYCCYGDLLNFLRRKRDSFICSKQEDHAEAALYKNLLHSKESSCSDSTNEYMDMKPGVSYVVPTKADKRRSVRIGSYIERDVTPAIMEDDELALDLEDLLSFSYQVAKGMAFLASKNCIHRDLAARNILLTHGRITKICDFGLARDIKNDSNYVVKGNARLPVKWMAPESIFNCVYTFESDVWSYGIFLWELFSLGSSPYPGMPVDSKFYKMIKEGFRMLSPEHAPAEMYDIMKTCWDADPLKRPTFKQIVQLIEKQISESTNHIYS

| SMILES | IC50 (BCR-KIT BaF3 cells) | turbidity threshold (L, M, H) 1.4 [1] | turbidity threshold (L, M, H) 4.5 [1] | turbidity threshold (L, M, H) 6.8 [1] | turbidity threshold (L, M, H) 7.4 [1] |
| --- | --- | --- | --- | --- | --- |
| CC1CCC(Nc2ncc(Cc3c[nH]c4ncc(Cl)cc34)cn2)CC1 (stereo not shown) [Compound P-3009, [5-(5-Chloro-1H-pyrrolo[2,3-b]pyridin-3-ylmethyl)-pyrimidin-2-yl]-(4-methyl-cyclohexyl)-amine] | > 1000 nM |  |  |  |  |
| Fc1nc(NC2CCC(F)(F)CC2)ccc1Cc1c[nH]c2ncc(Cl)cc12 [Compound P-3013, [5-(5-Chloro-1H-pyrrolo[2,3-b]pyridin-3-ylmethyl)-6-fluoro-pyridin-2-yl]-(4,4-difluoro-cyclohexyl)-amine] | > 1000 nM | L (low solubility if the threshold concentration is <31.3 μM) | L (low solubility if the threshold concentration is <31.3 μM) | L (low solubility if the threshold concentration is <31.3 μM) | L (low solubility if the threshold concentration is <31.3 μM) |
| Fc1ccccc1Nc1ncc(Cc2c[nH]c3ncc(Cl)cc23)cn1 [Compound P-3014, [5-(5-Chloro-1H-pyrrolo[2,3-b]pyridin-3-ylmethyl)-pyrimidin-2-yl]-(2-fluoro-phenyl)-amine] | > 1000 nM | H (high solubility if the threshold concentration is >250 μm) | M (moderate solubility if the threshold concentration is 31.3 μM to 250 μM) | M (moderate solubility if the threshold concentration is 31.3 μM to 250 μM) | M (moderate solubility if the threshold concentration is 31.3 μM to 250 μM) |
| Clc1cnc2[nH]cc(Cc3cnc(Nc4ccccc4Cl)nc3)c2c1 [Compound P-3015, (2-Chloro-phenyl)-[5-(5-chloro-1H-pyrrolo[2,3-b]pyridin-3-ylmethyl)-pyrimidin-2-yl]-amine] | > 1000 nM |  |  |  |  |
| COc1ccc(Nc2ccc(C(=O)c3c[nH]c4ncnc(NC(C)(C)C)c34)c(F)n2)cn1 [Compound P-4055, [4-(tert-butylamino)-7H-pyrrolo[2,3-d]pyrimidin-5-yl]-[2-fluoro-6-[(6-methoxy-3-pyridyl)amino]-3-pyridyl]methanone] | > 1000 nM | M (moderate solubility if the threshold concentration is 31.3 μM to 250 μM) | M (moderate solubility if the threshold concentration is 31.3 μM to 250 μM) | L (low solubility if the threshold concentration is <31.3 μM) | L (low solubility if the threshold concentration is <31.3 μM) |
| COc1ccc(Nc2ccc(C(=O)c3c[nH]c4ncnc(N5CCCCC5)c34)c(F)n2)cn1 [Compound P-4069, [2-fluoro-6-[(6-methoxy-3-pyridyl)amino]-3-pyridyl]-[4-(1-piperidyl)-7H-pyrrolo[2,3-d]pyrimidin-5-yl]methanone] | > 1000 nM |  |  |  |  |
| CNc1ncnc2[nH]cc(C(=O)c3ccc(Nc4ccc(OC)nc4)nc3OC)c12 [Compound P-4085, [2-methoxy-6-[(6-methoxy-3-pyridyl)amino]-3-pyridyl]-[4-(methylamino)-7H-pyrrolo[2,3-d]pyrimidin-5-yl]methanone] | > 1000 nM |  |  |  |  |
| O=C(c1ccc(Nc2ccc(C3CC3)nc2)nc1F)c1c[nH]c2ncnc(NCC(F)(F)F)c12 [Compound P-4090, [6-[(6-cyclopropyl-3-pyridyl)amino]-2-fluoro-3-pyridyl]-[4-(2,2,2-trifluoroethylamino)-7H-pyrrolo[2,3-d]pyrimidin-5-yl]methanone] | < 1000 nM |  |  |  |  |
| Cc1ccc(Nc2ccc(C(=O)c3c[nH]c4ncnc(NCC5CC5)c34)c(F)n2)cn1 [Compound P-4113, [4-(cyclopropylmethylamino)-7H-pyrrolo[2,3-d]pyrimidin-5-yl]-[2-fluoro-6-[(6-methyl-3-pyridyl)amino]-3-pyridyl]methanone] | < 1000 nM |  |  |  |  |

Continued, in another order:

| IC50 (BCR-KIT BaF3 cells) | SMILES | turbidity threshold (L, M, H) 1.4 [1] | turbidity threshold (L, M, H) 4.5 [1] | turbidity threshold (L, M, H) 6.8 [1] | turbidity threshold (L, M, H) 7.4 [1] |
| --- | --- | --- | --- | --- | --- |
| < 1000 nM | Cc1cnc2[nH]cc(Cc3cnc(Nc4ccc(F)cc4)nc3)c2c1 [Compound P-3010, (4-Fluoro-phenyl)-[5-(5-methyl-1H-pyrrolo[2,3-b]pyridin-3-ylmethyl)-pyrimidin-2-yl]-amine] | H (high solubility if the threshold concentration is >250 μm) | L (low solubility if the threshold concentration is <31.3 μM) | L (low solubility if the threshold concentration is <31.3 μM) | M (moderate solubility if the threshold concentration is 31.3 μM to 250 μM) |
| < 100 nM | Clc1ccc(Nc2ncc(Cc3c[nH]c4ncc(Cl)cc34)cn2)cc1 [Compound P-3011, (4-Chloro-phenyl)-[5-(5-chloro-1H-pyrrolo[2,3-b]pyridin-3-ylmethyl)-pyrimidin-2-yl]-amine] |  |  |  |  |
| < 1000 nM | Fc1ccc(Nc2ncc(Cc3c[nH]c4ncc(Cl)cc34)cn2)cc1 [Compound P-3012, [5-(5-Chloro-1H-pyrrolo[2,3-b]pyridin-3-ylmethyl)-pyrimidin-2-yl]-(4-fluoro-phenyl)-amine] | M (moderate solubility if the threshold concentration is 31.3 μM to 250 μM) | M (moderate solubility if the threshold concentration is 31.3 μM to 250 μM) | M (moderate solubility if the threshold concentration is 31.3 μM to 250 μM) | M (moderate solubility if the threshold concentration is 31.3 μM to 250 μM) |
| < 100 nM | CCc1ccc(Nc2ccc(C(=O)c3c[nH]c4ncnc(NCC(C)(C)O)c34)c(F)n2)cn1 [Compound P-4064, [6-[(6-ethyl-3-pyridyl)amino]-2-fluoro-3-pyridyl]-[4-[(2-hydroxy-2-methyl-propyl)amino]-7H-pyrrolo[2,3-d]pyrimidin-5-yl]methanone] |  |  |  |  |
| < 100 nM | COc1ccc(Nc2ccc(C(=O)c3c[nH]c4ncnc(NC5CC5)c34)c(F)n2)cn1 [Compound P-4126, [4-(cyclopropylamino)-7H-pyrrolo[2,3-d]pyrimidin-5-yl]-[2-fluoro-6-[(6-methoxy-3-pyridyl)amino]-3-pyridyl]methanone] |  |  |  |  |
